Data taken from patent US6225321A (priority 1997, dated 2001).
Where “and” joins values, the source holds several entries; their conditions need not be identical. Equal entries are not always repeated. Where two headings read alike, the source gives them in different places.

What was measured:
[1] = Pharmacokinetic study of long acting preparation in Beagle dogs; format: in vivo, Beagle dog; settings: for CL/F: read-out: CLt (converted); for Vd/F: read-out: Vss
Method: Six Beagle dogs were used. Five Beagle dogs were intramuscularly injected with 30 mg/kg long acting sebacoyl dinalbuphine ester parenteral administration respectively, and another one was injection with 100 mg/kg long acting sebacoyl dinalbuphine ester oily parenteral administration. Blood samples were collected through the vein in front limb of dogs at 1, 2, 6, 24, 30, 48, 54, 72, 78, 96, 102, 120, 168, 192 hours. […] Relationship between time and concentration was analyzed by PCNONLIN computer program. Two compartment model and pharmacokinetic parameters were calculated to depicted absorption, distribution, metabolism, and excretion of drugs in dogs.

[2] = Half-life / conversion of dinalbuphine sebacoyl ester in dog blood; format: in vitro ADME; settings: for Elimination half-life: n = 3, mean ± S.E.
Method: (a) Dinalbuphine sebacoyl ester was dissolved in acetonitrile, the concentration was 12.5 mg/ml.
(b) 200 ml of whole blood collected from rats given dinalbuphine sebacoyl ester, and anticoagulant was added.

[3] = Half-life / conversion of dinalbuphine sebacoyl ester in rabbit blood; format: in vitro ADME; settings: for Elimination half-life: n = 3, mean ± S.E.
Method: II. For Rabbit Experiments
(a) Dinalbuphine ester sebacoyl ester was dissolved in acetonitrile, the concentration was 5.2 mg/ml.
(b) 150 ml of whole blood collected from rats given dinalbuphine sebacoyl ester, and anticoagulant was added.

[4] = Half-life / conversion of dinalbuphine sebacoyl ester in rat blood; format: in vitro ADME; settings: for Elimination half-life: n = 3, mean ± S.E.
Method: (a) Dinalbuphine sebacoyl ester(SDN) was dissolved in acetonitrile, the concentration was 7.75 mg/ml.
(b) […] of whole blood was collected from rats given dinalbuphine sebacoyl ester, and anticoagulant was added.

human body = assay: Analgesic duration of sebacoyl dinalbuphine calculated for the human body; format: in vivo; settings: 125 μM/23 kg
Method: Therefore, the analgesic effect could be calculated on 4-5 days at 125 μM/23 kg to human body for sebacoyl dinalbuphine.
Besides, such parenteral volume was not ideal for a single dose. However, this invention made a development. By diluting a single dose of sebacoyl dinalbuphine in 7.15 ml sesame oil form, parenteral administration could give the analgesic effect maintained 4 to 5 days. In other words, the analgesic effect was extended […] for a single dose of intramuscularly injected sebacoyl dinalbuphine at only 7 ml oil vehicle.

[5] = Half-life / conversion of dinalbuphine sebacoyl ester in human blood; format: in vitro ADME; settings: for Elimination half-life: n = 3, mean ± S.E.
Method: IV. For Human Experiments
(a) Dinalbuphine sebacoyl ester was dissolved in acetonitrile, the concentration was 10 mg/ml.
(b) 250 ml of whole blood collected from rats given dinalbuphine sebacoyl ester, and anticoagulant was added.

[6] = Table 7, Dog 2, Dose 24.3 mg/kg
[7] = Table 7, Dog 2, Dose 81.0 mg/kg
[8] = dog, plasma, im, 24.3 mg/kg, Table 7, Dog 2, Dose 24.3 mg/kg
[9] = dog, plasma, im, 30 mg/kg, Mean of 5 dogs, 30 mg/kg i.m.
[10] = dog, plasma, im, 81 mg/kg, Table 7, Dog 2, Dose 81.0 mg/kg
[11] = individual Dog 1 to Dog 5, lines in this order, 30 mg/kg i.m., listed as SDN, 30 mg/kg

SMILES: O=C(CCCCCCCCC(=O)Oc1ccc2c3c1O[C@H]1[C@@H](O)CC[C@@]4(O)[C@@H](C2)N(CC2CCC2)CC[C@]314)Oc1ccc2c3c1O[C@H]1[C@@H](O)CC[C@@]4(O)[C@@H](C2)N(CC2CCC2)CC[C@]314 [sebacoyl dinalbuphine ester]
- A ([1]; Mean of 5 dogs, 30 mg/kg i.m.): 15.0 µg/mL
- AUMC ([1]; Mean of 5 dogs, 30 mg/kg i.m.): 983.2 h^2 μg/ml
- Abs. time ([1]; Mean of 5 dogs, 30 mg/kg i.m.): 92.6 h
- B ([1]; Mean of 5 dogs, 30 mg/kg i.m.): 0.32 µg/mL
- Vc ([1]; Mean of 5 dogs, 30 mg/kg i.m.): 14.84 L/kg
- k12 ([1]; Mean of 5 dogs, 30 mg/kg i.m.): 8.51 h⁻¹
- k21 ([1]; Mean of 5 dogs, 30 mg/kg i.m.): 0.28 h⁻¹
- ko ([1]; Mean of 5 dogs, 30 mg/kg i.m.): 180.6 µg/kg/h
- α ([1]; Mean of 5 dogs, 30 mg/kg i.m.): 9.98 h⁻¹
- A [1, 6]: 14.1 µg/mL
- AUC/D [1, 6]: 0.478 kg·h/mL
- AUMC [1, 6]: 915 h^2 ng/ml
- Abs. time [1, 6]: 95.6 h
- B [1, 6]: 0.22 µg/mL
- Vc [1, 6]: 10.21 L/kg
- k12 [1, 6]: 5.53 h⁻¹
- k21 [1, 6]: 0.13 h⁻¹
- ko [1, 6]: 149.9 µg/kg/h
- α [1, 6]: 6.85 h⁻¹
- A [1, 7]: 59.0 µg/mL
- AUC/D [1, 7]: 0.488 kg·h/mL
- AUMC [1, 7]: 5026 h^2 ng/ml
- Abs. time [1, 7]: 168.0 h
- B [1, 7]: 0.51 µg/mL
- Vc [1, 7]: 10.21 L/kg
- k12 [1, 7]: 8.99 h⁻¹
- k21 [1, 7]: 0.11 h⁻¹
- ko [1, 7]: 354.2 µg/kg/h
- α [1, 7]: 10.73 h⁻¹
- AUC [1, 8]: 11900 ng·h/mL
- CL/F [1, 8]: 1.21 mL/h/kg
- bioavailability ([1]; dog, plasma, im, 24.3 mg/kg, Table 7, Dog 2, Dose 24.3 mg/kg, read-out: F): 59%
- MRT ([1]; dog, plasma, im, 24.3 mg/kg, Table 7, Dog 2, Dose 24.3 mg/kg, read-out: MRT): 78.8 h
- Vd/F [1, 8]: 450 L/kg
- k el ([1]; dog, plasma, im, 24.3 mg/kg, Table 7, Dog 2, Dose 24.3 mg/kg, read-out: k10 (converted)): 0.000336 s⁻¹
- half-life ([1]; dog, plasma, im, 24.3 mg/kg, Table 7, Dog 2, Dose 24.3 mg/kg, read-out: t1/2,α (converted)): 0.1 h
- half-life ([1]; dog, plasma, im, 24.3 mg/kg, Table 7, Dog 2, Dose 24.3 mg/kg, read-out: t1/2,β (converted)): 30.6 h
- k el ([1]; dog, plasma, im, 24.3 mg/kg, Table 7, Dog 2, Dose 24.3 mg/kg, read-out: β (converted)): 6.39e-06 s⁻¹
- AUC [1, 9]: 13600 ng·h/mL
- CL/F [1, 9]: 1.22 mL/h/kg
- Cmax ([1]; dog, plasma, im, 30 mg/kg, Mean of 5 dogs, 30 mg/kg i.m., read-out: Cmax): 149 ng/mL
- bioavailability ([1]; dog, plasma, im, 30 mg/kg, Mean of 5 dogs, 30 mg/kg i.m., read-out: F): 63.1%
- MRT ([1]; dog, plasma, im, 30 mg/kg, Mean of 5 dogs, 30 mg/kg i.m., read-out: MRT): 73.2 h
- Vd/F [1, 9]: 574 L/kg
- k el ([1]; dog, plasma, im, 30 mg/kg, Mean of 5 dogs, 30 mg/kg i.m., read-out: k10 (converted)): 0.000339 s⁻¹
- half-life ([1]; dog, plasma, im, 30 mg/kg, Mean of 5 dogs, 30 mg/kg i.m., read-out: t1/2,α (converted)): 0.09 h
- half-life ([1]; dog, plasma, im, 30 mg/kg, Mean of 5 dogs, 30 mg/kg i.m., read-out: t1/2,β (converted)): 27.7 h
- k el ([1]; dog, plasma, im, 30 mg/kg, Mean of 5 dogs, 30 mg/kg i.m., read-out: β (converted)): 8.33e-06 s⁻¹
- AUC ([1]; dog, plasma, im, 30 mg/kg, individual Dog 1 to Dog 5, lines in this order, 30 mg/kg i.m.): 9730 ng·h/mL
- MRT ([1]; dog, plasma, im, 30 mg/kg, individual Dog 1 to Dog 5, lines in this order, 30 mg/kg i.m., read-out: MRT): 84.3 h
- AUC [1, 10]: 36200 ng·h/mL
- CL/F [1, 10]: 1.64 mL/h/kg
- Cmax ([1]; dog, plasma, im, 81 mg/kg, Table 7, Dog 2, Dose 81.0 mg/kg, read-out: Cmax): 204 ng/mL
- bioavailability ([1]; dog, plasma, im, 81 mg/kg, Table 7, Dog 2, Dose 81.0 mg/kg, read-out: F): 73.4%
- MRT ([1]; dog, plasma, im, 81 mg/kg, Table 7, Dog 2, Dose 81.0 mg/kg, read-out: MRT): 127 h
- Vd/F [1, 10]: 861 L/kg
- k el ([1]; dog, plasma, im, 81 mg/kg, Table 7, Dog 2, Dose 81.0 mg/kg, read-out: k10 (converted)): 0.000456 s⁻¹
- half-life ([1]; dog, plasma, im, 81 mg/kg, Table 7, Dog 2, Dose 81.0 mg/kg, read-out: t1/2,α (converted)): 0.07 h
- half-life ([1]; dog, plasma, im, 81 mg/kg, Table 7, Dog 2, Dose 81.0 mg/kg, read-out: t1/2,β (converted)): 41.9 h
- k el ([1]; dog, plasma, im, 81 mg/kg, Table 7, Dog 2, Dose 81.0 mg/kg, read-out: β (converted)): 4.72e-06 s⁻¹
- bioavailability ([1]; dog, plasma, im, Beagle dogs, intramuscular, read-out: bioavailability): ~63%
- half-life ([1]; dog, plasma, im, Beagle dogs, intramuscular, read-out: half life for excretion (converted)): ~30 h
- A [1, 11]: 20.9 μg/ml and 14.1 μg/ml (2×) and 9.5 μg/ml and 16.5 μg/ml
- AUMC [1, 11]: 934.4 h^2 μg/ml and 915.0 h^2 μg/ml and 886.2 h^2 μg/ml and 1217.4 h^2 μg/ml and 1063.0 h^2 μg/ml
- Abs. time [1, 11]: 164.5 h and 95.6 h (2×) and 49.3 h and 58.0 h
- B [1, 11]: 0.46 µg/mL and 0.22 µg/mL and 0.32 µg/mL and 0.36 µg/mL and 0.21 µg/mL
- Cmax [1, 11]: 59 ng/mL and 112 ng/mL and 197 ng/mL and 255 ng/mL and 123 ng/mL
- F [1, 11]: 87.9% and 40.4% and 59.6% and 68.8%
- MRT [1, 11]: 61.1 h and 62.7 h and 79.1 h
- Vc [1, 11]: 13.88 L/kg and 10.21 L/kg and 14.95 L/kg and 10.65 L/kg and 24.50 L/kg
- Vss [1, 11]: 360.9 L/kg and 428.1 L/kg and 303.6 L/kg and 1325 L/kg
- k12 [1, 11]: 6.16 h⁻¹ and 5.53 h⁻¹ and 21.55 h⁻¹ and 3.89 h⁻¹ and 5.43 h⁻¹
- k21 [1, 11]: 0.25 h⁻¹ and 0.13 h⁻¹ and 0.78 h⁻¹ and 0.14 h⁻¹ and 0.10 h⁻¹
- ko [1, 11]: 129.9 µg/kg/h and 149.9 µg/kg/h and 199.1 µg/kg/h and 249.5 µg/kg/h and 174.9 µg/kg/h
- t1/2,β [1, 11]: 10.94 h and 30.61 h and 28.64 h and 30.99 h and 37.26 h
- α [1, 11]: 8.54 h⁻¹ and 6.85 h⁻¹ and 23.02 h⁻¹ and 4.76 h⁻¹ and 6.74 h⁻¹
- order of absorption ([1]; injection oil vehicle, intramuscular): zero order
- kinetic linearity with dose ([1]; two doses in the same dog): linear kinetic
- Elimination half-life ([2]; dog plasma): 0.463 ± 0.0083 h
- Elimination half-life ([2]; dog red blood cell): 0.557 ± 0.0233 h
- Elimination half-life ([2]; dog whole blood): 0.508 ± 0.013 h
- converted time of 90% into Nalbuphine ([2]; dogs): 95 min
- half life ([2]; dogs, HPLC): 0.463 h
- Elimination half-life ([3]; rabbit plasma): 0.116 ± 0.0005 h
- Elimination half-life ([3]; rabbit red blood cell): 0.437 ± 0.08 h
- Elimination half-life ([3]; rabbit whole blood): 0.248 ± 0.0217 h
- converted time of 90% into Nalbuphine ([3]; rabbits): 25 min
- half life ([3]; rabbits, HPLC): 7.0 min
- Elimination half-life ([4]; rat plasma): 2.8 min
- Elimination half-life ([4]; rat red blood cell): 2.3 ± 0.6 min
- Elimination half-life ([4]; rat whole blood): 2.2 ± 0.5 min
- converted time of 90% into Nalbuphine ([4]; rats): 10 min
- half life ([4]; rats, HPLC): 2.8 min
- duration of analgesic effect calculated for human body (human body): 4 to 5 days
- Elimination half-life ([5]; human plasma): 9.0 ± 0.4 min
- Elimination half-life ([5]; human red blood cell): 7.7 ± 0.4 min
- Elimination half-life ([5]; human whole blood): 8.8 ± 0.4 min
- converted time of 90% into Nalbuphine ([5]; humans): 30 min
- half life ([5]; humans, HPLC): 9.0 min
